Among the test systems are KASUMI-2; COG-LL-317; NALM-6.
Common to all, as to experiment: selective drug sensitivity score (sDSS, relative to normal bone marrow) (sDSS (score)); higher = more potent and effective on the cell line relative to normal bone marrow cells
Holding throughout (details): 72 h
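Also: ALL cell lines in 384-well plates, five doses spanning 10,000-fold, each plate scaled between vehicle and 100 µmol/L benzalkonium chloride controls, sDSS an adapted area-under-curve metric.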

For `COc1cc2c(Oc3ccc(NC(=O)C4(C(=O)Nc5ccc(F)cc5)CC4)cc3F)ccnc2cc1OCCCN1CCOCC1` [Foretinib] (top concentration 1000 nM), the “selective drug sensitivity score” value was -2.96 in the assay on KASUMI-2, 0.44 with COG-LL-317 and 0.74 with NALM-6.

Take `CNC(=O)c1cc(Oc2ccc(NC(=O)Nc3ccc(Cl)c(C(F)(F)F)c3)cc2)ccn1` [Sorafenib] (top concentration 1000 nM): the “selective drug sensitivity score” value in the assay with KASUMI-2 turned out to be 0; with COG-LL-317, 0; with NALM-6 it was 0.2.

As to `Cc1ccc(C(=O)Nc2ccc(Oc3cc4cnn(C)c4cc3-c3cn[nH]c3)c(F)c2)c(=O)n1-c1ccc(F)cc1` [Merestinib] (top concentration 1000 nM), the “selective drug sensitivity score” value with KASUMI-2, in the assay with COG-LL-317 and with NALM-6 was -0.62 in each case.

On to `CC(C)c1cc(-c2n[nH]c(=O)n2-c2ccc3c(ccn3C)c2)c(O)cc1O` [Ganetespib] (top concentration 1000 nM), for which the “selective drug sensitivity score” value in the assay with KASUMI-2 stood at 6.04; in the assay with COG-LL-317, 8.64; in the assay with NALM-6 it was 2.34.

With `C=CC(=O)N1CCC[C@@H](n2nc(-c3ccc(Oc4ccccc4)cc3)c3c(N)ncnc32)C1` [Ibrutinib] (top concentration 1000 nM), the “selective drug sensitivity score” value in the assay with KASUMI-2 was determined as 0; in the assay with COG-LL-317, 0; with NALM-6 it was 2.4.

With `CC(C)NC(=O)COc1cccc(-c2nc(Nc3ccc4[nH]ncc4c3)c3ccccc3n2)c1` [KD025] (top concentration 5000 nM), the “selective drug sensitivity score” value is -5.06 in the assay on KASUMI-2, -5.36 with COG-LL-317 and 1.14 with NALM-6.

`CCc1cnn2c(NCc3ccc[n+]([O-])c3)cc(N3CCCC[C@H]3CCO)nc12` [Dinaciclib] (top concentration 1000 nM): the “selective drug sensitivity score” value was -7.74 with KASUMI-2, 1.26 with COG-LL-317 and -2.04 in the assay on NALM-6.

For `Cc1cc(C(C)Nc2ccccc2)c2nc(N3CCOCC3)cc(=O)n2c1` (configuration not stated) [TGX-221] (top concentration 10000 nM), the “selective drug sensitivity score” value with KASUMI-2 was -1.64; in the assay on COG-LL-317, -1.64; in the assay on NALM-6, 3.56.

As to `N[C@@H]1CCCN(c2c(/C=C3\SC(=O)NC3=O)cccc2-c2ccccc2)C1` [AZD1208] (top concentration 10000 nM), the “selective drug sensitivity score” value with KASUMI-2, with COG-LL-317 and with NALM-6 was -4.4 in each case.

Consider `Cn1c(Nc2ccc(C(F)(F)F)cc2)nc2cc(Oc3ccnc(-c4ncc(C(F)(F)F)[nH]4)c3)ccc21` [NVP-RAF265] (top concentration 1000 nM), for which the “selective drug sensitivity score” value in the assay with KASUMI-2 is -0.22; with COG-LL-317, 7.28; with NALM-6 it was -0.22.

Regarding `Cc1nc(Nc2ncc(C(=O)Nc3c(C)cccc3Cl)s2)cc(N2CCN(CCO)CC2)n1` [Dasatinib] (top concentration 1000 nM), the figures for the “selective drug sensitivity score” value with KASUMI-2, in the assay on COG-LL-317 and in the assay with NALM-6 were -2.8, -0.7 and 3.3, respectively.

For the compound `N#Cc1ccc(COC[C@H]2O[C@@H](n3c(NCc4ccc(Cl)c(Cl)c4)nc4c(N)ncnc43)[C@H](O)[C@@H]2O)cc1` (top concentration 10000 nM), the “selective drug sensitivity score” value with KASUMI-2 is -0.08; in the assay with COG-LL-317, 6.22; in the assay with NALM-6, 5.92.

With `Cc1ccc(C(=O)N(CCCN)[C@@H](c2oc3cc(Cl)ccc3c(=O)c2Cc2ccccc2)C(C)C)cc1` (top concentration 100 nM), the “selective drug sensitivity score” value in the assay on KASUMI-2 is 3.56; in the assay on COG-LL-317, 1.16; in the assay with NALM-6, 3.56.

As to `Nc1cccc2c1CN(C1CCC(=O)NC1=O)C2=O` (configuration not stated) [Lenalidomide] (top concentration 100000 nM), the results for the “selective drug sensitivity score” value in the assay on KASUMI-2, with COG-LL-317 and with NALM-6 were -2.28, 2.92 and -2.28, respectively.

For `CC(C)(C)c1cnc(CSc2cnc(NC(=O)C3CCNCC3)s2)o1` [SNS-032] (top concentration 10000 nM), the “selective drug sensitivity score” value was -5.44 in the assay with KASUMI-2, 1.66 in the assay on COG-LL-317 and -2.44 with NALM-6.

Consider `CC1=NN(c2ccc(C(=O)O)cc2)C(=O)C1=Cc1ccc(-c2cc(C)c(C)cc2[N+](=O)[O-])o1` [C646] (top concentration 25000 nM), for which the figures for the “selective drug sensitivity score” value in the assay with KASUMI-2, in the assay with COG-LL-317 and in the assay on NALM-6 were 15.1, 1.74 and -2.06, respectively.

`Cc1c(C(=O)Nc2ccc(N3C[C@@H](C)O[C@@H](C)C3)nc2)cccc1-c1ccc(OC(F)(F)F)cc1` [Sonidegib] (top concentration 10000 nM): the results for the “selective drug sensitivity score” value in the assay with KASUMI-2, in the assay with COG-LL-317 and with NALM-6 were -1.42, -1.02 and 0.98, respectively.

As to `CNc1nc(-c2ccc3c(N)n[nH]c3c2)cc(N2C[C@@H](C(=O)NC3CCCCC3)CC[C@H]2C)n1` (top concentration 10000 nM), the “selective drug sensitivity score” value with KASUMI-2 was 7.26; with COG-LL-317 it was -0.14; in the assay with NALM-6 it was 2.96.

For the compound `C/C=C1\NC(=O)[C@H]2CSSCC/C=C/[C@H](CC(=O)N[C@H](C(C)C)C(=O)N2)OC(=O)[C@H](C(C)C)NC1=O` [Romidepsin] (top concentration 1000 nM), the results for the “selective drug sensitivity score” value with KASUMI-2, in the assay with COG-LL-317 and in the assay with NALM-6 were 5.06, 0.76 and 2.66, respectively.

Take `Cc1cc2c(C(C)C)c(O)c(O)c(C=O)c2c(O)c1-c1c(C)cc2c(C(C)C)c(O)c(O)c(C=O)c2c1O` [AT-101] (top concentration 100000 nM): the “selective drug sensitivity score” value is -0.32 in the assay with KASUMI-2, 8.08 with COG-LL-317 and 6.38 in the assay on NALM-6.

`CN1CCN(c2nc(C3=C(c4c[nH]c5ccccc45)C(=O)NC3=O)c3ccccc3n2)CC1` [Sotrastaurin] (top concentration 10000 nM): the “selective drug sensitivity score” value worked out at 2.8 in the assay on KASUMI-2, 0 in the assay with COG-LL-317 and 0.8 in the assay with NALM-6.

`CC[C@H](Nc1ncnc2[nH]cnc12)c1nc2cccc(F)c2c(=O)n1-c1ccccc1` [Idelalisib] (top concentration 10000 nM): the “selective drug sensitivity score” value with KASUMI-2 was found to be 8.04; in the assay on COG-LL-317, 0.04; in the assay on NALM-6, 7.24.

For the compound `NC[C@@](O)(c1ccc(Cl)cc1)c1ccc(-c2cn[nH]c2)cc1` (top concentration 10000 nM), the “selective drug sensitivity score” value in the assay on KASUMI-2 was found to be 2.78; with COG-LL-317, 0.98; in the assay on NALM-6, 1.28.

`COC[C@H](NC(=O)c1cnc(C)s1)C(=O)N[C@@H](COC)C(=O)N[C@@H](Cc1ccccc1)C(=O)[C@@]1(C)CO1` [Oprozomib] (top concentration 2500 nM): the entries for the “selective drug sensitivity score” value with KASUMI-2, in the assay on COG-LL-317 and in the assay on NALM-6 were -1.1, 7.9 and -0.4, respectively.

Turning to `O=C(NC1CCNCC1)c1n[nH]cc1NC(=O)c1c(Cl)cccc1Cl` [AT7519] (top concentration 10000 nM), the “selective drug sensitivity score” value with KASUMI-2 was -4.46; with COG-LL-317 it was -4.06; in the assay on NALM-6 it was -2.76.

For the compound `CN1CCc2c(c3ccccc3n2Cc2ccc(C(=O)NO)cc2)C1` [Tubastatin_A] (top concentration 10000 nM), the “selective drug sensitivity score” value with KASUMI-2 came to 7.06; in the assay with COG-LL-317, 1.96; in the assay with NALM-6, 1.36.

Regarding `C[C@@H](Oc1ccc2[nH]nc(/C=C/c3cnn(CCO)c3)c2c1)c1c(Cl)cncc1Cl` (top concentration 1000 nM), the “selective drug sensitivity score” value is -7.04 with KASUMI-2, -2.74 in the assay with COG-LL-317 and 7.16 with NALM-6.

`CC1(COc2ccc3c(c2)ncn3-c2ccc3cccc(N4CCC(N)CC4)c3n2)COC1` [Crenolanib] (top concentration 10000 nM): the “selective drug sensitivity score” value in the assay on KASUMI-2 is -5.22; in the assay with COG-LL-317 it was 2.08; in the assay on NALM-6 it was -4.02.

`CCc1nc(C(N)=O)c(Nc2ccc(N3CCC(N4CCN(C)CC4)CC3)c(OC)c2)nc1NC1CCOCC1` [Gilteritinib] (top concentration 1000 nM): the “selective drug sensitivity score” value in the assay with KASUMI-2, with COG-LL-317 and with NALM-6 was -2.52 each time.

(Values after the supplement of paper PMC8967900.)
